This note sets out measurements from patent US9676757B2, “Heterocyclic compounds as NaV channel inhibitors and uses thereof” (Merck Patent GmbH, priority 2014, dated 2017).

pIC50: −log10 of the molar value. Where two headings read alike, the source gives them in different places. Where only a bound is given, the exact number is not on record here.

In this test the target is Nav1.6 (Homo sapiens, UniProt Q9UQD0). Description: Nav two-pulse protocol, IonWorks Quattro electrophysiology. The following applies: -120 mV to 0 mV, compound incubated 300 s. Type of test: cell-based. How it is done:
Compound Plate Preparation
Supplied compounds were sent as Assay Ready Plates, with 2 μL per well of compound in DMSO at 300× the final assay concentrations as described above and in the project proposal. All assay plates are stored at in a −80° C. freezer.
On the day of the assay, 198 μL of external solution was added to the appropriate assay plate and mixed thoroughly. This provided a 1:100 dilution. A further 1:3 dilution occurred upon addition to the cells in the IonWorks, giving a 1:300 dilution in total.
On each assay plate, at least 8 wells were reserved for vehicle control (0.3% DMSO) and at least 8 wells for each positive control specific to the cell line tested. The positive controls were tested in an 8-point dose response with 3-fold dilutions to determine an IC50 value for each run. The positive control compounds are outlined below.
Ion Channel Positive Control & Concentrations
Nav1.6/1.2 Lidocaine: 8, 3-fold dilutions starting at 100 μM
Electrophysiological Recording Solutions
The solutions for recording currents were are follows:
Amphotericin B was used to obtain electrical access to the cell interior at a final concentration of 200 μg/ml in internal recording solution.
Experimental Protocols & Data Analysis
Nav currents were evoked by stepping from a holding potential of −120 mV to 0 mV for 2.5 s (pulse 1), followed by a 5 ms inter-pulse interval, and stepping from a holding potential of −120 mV to 0 mV for 20 ms (pulse 2). The voltage protocol was applied (Pre), compounds added, incubated for 300 seconds, and the voltage protocol was applied a final time (Post) on the IonWorks Quattro.
The parameters measured were the maximum inward current evoked on stepping to 0 mV from the 1st and 2nd pulse. All data were filtered for seal quality, seal drop, and current amplitude. The peak current amplitude (Peak) was calculated before (Pre) and after (Post) compound addition to the amount of block was assessed by dividing the Post-compound current amplitude by the Pre-compound current amplitude. These procedures were implemented for the 1st and 2nd pulse.

Sequence of Nav1.6 (Q9UQD0 whole entry): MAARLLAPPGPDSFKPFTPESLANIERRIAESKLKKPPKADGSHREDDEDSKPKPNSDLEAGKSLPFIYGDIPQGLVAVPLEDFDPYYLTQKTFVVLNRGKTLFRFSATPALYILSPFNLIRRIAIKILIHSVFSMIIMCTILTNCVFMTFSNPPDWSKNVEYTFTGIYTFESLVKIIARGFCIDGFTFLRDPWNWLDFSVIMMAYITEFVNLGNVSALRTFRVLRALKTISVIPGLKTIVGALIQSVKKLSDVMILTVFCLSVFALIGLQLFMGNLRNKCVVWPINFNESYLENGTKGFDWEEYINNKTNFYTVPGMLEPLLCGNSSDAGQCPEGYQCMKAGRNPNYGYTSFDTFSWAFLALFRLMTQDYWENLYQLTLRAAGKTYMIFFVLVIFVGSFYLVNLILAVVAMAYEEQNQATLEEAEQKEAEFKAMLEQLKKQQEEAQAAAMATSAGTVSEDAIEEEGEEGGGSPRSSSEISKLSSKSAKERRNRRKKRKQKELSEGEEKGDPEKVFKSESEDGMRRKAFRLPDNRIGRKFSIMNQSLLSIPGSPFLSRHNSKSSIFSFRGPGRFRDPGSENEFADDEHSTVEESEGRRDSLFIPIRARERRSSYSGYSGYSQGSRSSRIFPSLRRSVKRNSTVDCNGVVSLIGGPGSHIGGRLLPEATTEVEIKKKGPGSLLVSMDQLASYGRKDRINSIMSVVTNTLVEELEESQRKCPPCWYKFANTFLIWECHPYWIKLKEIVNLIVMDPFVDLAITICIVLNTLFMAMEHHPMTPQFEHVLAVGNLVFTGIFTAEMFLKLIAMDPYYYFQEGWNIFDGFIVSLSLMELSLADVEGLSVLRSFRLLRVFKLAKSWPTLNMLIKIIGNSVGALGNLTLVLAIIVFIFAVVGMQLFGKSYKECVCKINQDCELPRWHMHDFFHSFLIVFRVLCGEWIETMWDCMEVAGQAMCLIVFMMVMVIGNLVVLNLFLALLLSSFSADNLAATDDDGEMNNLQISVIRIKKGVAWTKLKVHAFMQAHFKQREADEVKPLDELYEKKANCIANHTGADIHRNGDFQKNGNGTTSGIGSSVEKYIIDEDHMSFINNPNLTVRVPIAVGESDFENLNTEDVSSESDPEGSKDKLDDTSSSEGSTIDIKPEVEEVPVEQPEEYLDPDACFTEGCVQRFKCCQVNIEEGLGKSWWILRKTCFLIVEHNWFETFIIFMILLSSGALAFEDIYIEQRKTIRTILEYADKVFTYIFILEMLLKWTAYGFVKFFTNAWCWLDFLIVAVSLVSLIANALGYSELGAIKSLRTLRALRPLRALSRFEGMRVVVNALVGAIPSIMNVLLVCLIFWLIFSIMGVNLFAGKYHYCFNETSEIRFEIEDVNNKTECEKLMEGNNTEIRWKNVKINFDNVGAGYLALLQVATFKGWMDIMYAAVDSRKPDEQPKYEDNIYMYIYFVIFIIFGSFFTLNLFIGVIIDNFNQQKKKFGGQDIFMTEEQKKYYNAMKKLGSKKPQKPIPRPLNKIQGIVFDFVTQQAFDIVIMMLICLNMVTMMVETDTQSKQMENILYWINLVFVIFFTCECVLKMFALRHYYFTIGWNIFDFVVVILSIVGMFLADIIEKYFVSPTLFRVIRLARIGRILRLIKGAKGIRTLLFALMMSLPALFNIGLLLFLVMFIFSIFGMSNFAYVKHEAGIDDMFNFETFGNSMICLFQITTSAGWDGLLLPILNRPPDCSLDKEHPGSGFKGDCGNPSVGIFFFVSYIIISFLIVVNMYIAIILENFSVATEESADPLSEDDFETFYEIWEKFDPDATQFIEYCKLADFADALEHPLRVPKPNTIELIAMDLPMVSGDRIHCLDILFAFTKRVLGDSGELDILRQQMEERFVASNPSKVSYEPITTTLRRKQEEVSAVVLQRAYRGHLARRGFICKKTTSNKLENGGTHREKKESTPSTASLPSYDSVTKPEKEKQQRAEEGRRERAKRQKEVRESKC

As for `O=C(NCc1ccccn1)C1CCN(Cc2ccc3c(c2)OC(F)(F)O3)C1` (centres unmarked) [Compound 31, 1-(2,2-Difluoro-benzo[1,3]dioxol-5-ylmethyl)-pyrrolidine-3-carboxylic acid (pyridin-2-ylmethyl)-amide], the pIC50 is less than 4.70 (read-out: Nav1.6 Tonic) and 5.30 to 6.00 (read-out: Nav1.6 inac).

With `CC1(C)Cc2cc(CN3CCC(C(=O)NCc4ccccn4)C3)ccc2O1` (centres unmarked) [Compound 32, 1-(2,2-Dimethyl-2,3-dihydro-benzofuran-5-ylmethyl)-pyrrolidine-3-carboxylic acid (pyridin-2-ylmethyl)-amide], the pIC50 runs as follows: (read-out: Nav1.6 Tonic) less than 4.70; (read-out: Nav1.6 inac) 5.30 to 6.00.

Consider `CC1(C)Oc2ccc(CN3CCC(C(=O)NCc4ccccn4)C3)cc2O1` (centres unmarked) [Compound 33, 1-(2,2-Dimethyl-benzo[1,3]dioxol-5-ylmethyl)-pyrrolidine-3-carboxylic acid (pyridin-2-ylmethyl)-amide], for which the pIC50 was less than 4.70 (read-out: Nav1.6 Tonic) and 5.30 to 6.00 (read-out: Nav1.6 inac).

For the molecule `CC(C)COc1cccc(CN2CCC(COCc3ccccn3)C2)c1` (centres unmarked) [Compound 35, 2-[1-(3-Isobutoxy-benzyl)-pyrrolidin-3-ylmethoxymethyl]-pyridine], the pIC50 by setting is: (read-out: Nav1.6 Tonic) less than 4.70; (read-out: Nav1.6 inac) 5.30 to 6.00.

For the molecule `CC(C)OCc1cccc(CN2CCC(CNC(=O)c3ccccn3)C2)c1` (centres unmarked) [Compound 36, Pyridine-2-carboxylic acid [1-(3-isopropoxymethyl-benzyl)-pyrrolidin-3-ylmethyl]-amide], the pIC50 by setting is: (read-out: Nav1.6 Tonic) less than 4.70; (read-out: Nav1.6 inac) greater than 6.00.

Turning to `C[C@@]1(C(=O)NCc2ccccn2)CCN(Cc2cccc(Oc3ccccc3)c2)C1` [Compound 37, (R)-3-methyl-1-(3-phenoxybenzyl)-N-(pyridin-2-ylmethyl)pyrrolidine-3-carboxamide], the pIC50 (read-out: Nav1.6 Tonic) was less than 4.70 and the pIC50 (read-out: Nav1.6 inac) is 5.30 to 6.00.

With `C[C@]1(C(=O)NCc2ccccn2)CCN(Cc2cccc(Oc3ccccc3)c2)C1` [Compound 38, (S)-3-methyl-1-(3-phenoxybenzyl)-N-(pyridin-2-ylmethyl)pyrrolidine-3-carboxamide], the pIC50 reads like this: (read-out: Nav1.6 Tonic) less than 4.70; (read-out: Nav1.6 inac) less than 5.30.

In the case of `CC1(C(=O)N2CCNCC2)CCN(Cc2cccc(Oc3ccccc3)c2)C1` (centres unmarked) [Compound 39, [3-Methyl-1-(3-phenoxy-benzyl)-pyrrolidin-3-yl]-piperazin-1-yl-methanone], the pIC50 was less than 4.70 (read-out: Nav1.6 Tonic) and 5.30 to 6.00 (read-out: Nav1.6 inac).

For `CCNC(=O)C1(C)CCN(C(=O)c2cccc(Oc3ccccc3)c2)C1` (centres unmarked) [Compound 40, 3-Methyl-1-(3-phenoxy-benzoyl)-pyrrolidine-3-carboxylic acid ethylamide], the pIC50 (read-out: Nav1.6 Tonic) was 4.70 to 5.00 and the pIC50 (read-out: Nav1.6 inac) is greater than 6.00.

With `CCNC(=O)C1(C)CCN(Cc2cccc(OC(F)(F)F)c2)C1` (centres unmarked) [Compound 41, 3-Methyl-1-(3-trifluoromethoxy-benzyl)-pyrrolidine-3-carboxylic acid ethylamide], the pIC50 by setting is: (read-out: Nav1.6 Tonic) 4.70 to 5.00; (read-out: Nav1.6 inac) greater than 6.00.

Regarding `CC(C)C[S+]([O-])c1cccc(CN2CCC(C(=O)NCc3ccccn3)C2)c1` (centres unmarked) [Compound 42, 1-[3-(2-Methyl-propane-1-sulfinyl)-benzyl]-pyrrolidine-3-carboxylic acid (pyridin-2-ylmethyl)-amide], the pIC50 runs as follows: (read-out: Nav1.6 Tonic) less than 4.70; (read-out: Nav1.6 inac) less than 5.30.

Take `Cc1cccc(Oc2cccc(CN3CCC(C(=O)NCc4ccccn4)C3)c2)c1` (centres unmarked) [Compound 43, 1-(3-m-Tolyloxy-benzyl)-pyrrolidine-3-carboxylic acid (pyridin-2-ylmethyl)-amide]: the pIC50 (read-out: Nav1.6 Tonic) is less than 4.70 and the pIC50 (read-out: Nav1.6 inac) was less than 5.30.

With `O=C(NCc1ccccn1)C1CCN(Cc2cccc(Oc3ncccn3)c2)C1` (centres unmarked) [Compound 44, 1-[3-(Pyrimidin-2-yloxy)-benzyl]-pyrrolidine-3-carboxylic acid (pyridin-2-ylmethyl)-amide], the pIC50 by setting is: (read-out: Nav1.6 Tonic) less than 4.70; (read-out: Nav1.6 inac) less than 5.30.
